According to patent publication US20260216292A1, “CXCL8 INHIBITORS FOR USE IN THE TREATMENT OF OCULAR MUCOUS MEMBRANE PEMPHIGOID AND/OR ORAL MUCOUS MEMBRANE PEMPHIGOID” (DOMPE' FARMACEUTICI SPA, priority 2023, published 2026):
“Also recorded” adds a separate entry of the source.

Experiments:
Assay type in all cases: in vivo, C57Bl/6 (B6) mice
[1] = test system: experimental MMP mouse model (anti-mLAMα3 IgG induced); assay: Conjunctival lesions by lesional histopathology (H&E) of palpebral conjunctiva in antibody transfer-induced experimental MMP; details: for overall therapeutic effect in diseased mice: administered topically twice a day, days 12 and 28; for subepithelial inflammatory infiltrate, semi-quantification of H&E stained palpebral conjunctival biopsies / palpebral conjunctival split formation (conjunctiva score): vs vehicle; for palpebral conjunctival split formation (conjunctiva score): score 0-4
Text: (§1) Adult C57Bl/6 (B6) mice (male and female) aged at least 6 weeks old were used. Animals were maintained on a 12-h light-dark cycle at the animal facility of the University of Lübeck. Mice were held under SPF conditions and fed acidified drinking water and standard chow ad libitum. Protocols were approved by the Animal Rights Commission of the Ministry of Agriculture and Environment, Schleswig-Holstein.
For production of anti-mLAMα3 IgG, New Zealand White rabbits were immunized subcutaneously with […] of an equimolar mixture of the 2 purified recombinant proteins (aa1656-1985 and aa2756-3330 of murine Laminin alpha3 chain, produced in E. coli as disclosed by Heppe, E. N., et al., J Invest Dermatol, 2017, 137, 1709-1718) suspended in complete Freund's adjuvant. The animals were boosted twice with the same protein preparation in incomplete Freund's adjuvant. Immune sera were obtained at regular intervals and characterized by IF microscopy on cryosections of murine skin. IgG from rabbits immunized with recombinant fragments of murine mLAMα3 and from non-immunized rabbits was purified by affinity chromatography using protein G sepharose affinity chromatography (Amersham Biosciences, Heidelberg, Germany). Reactivity of IgG fractions was analyzed by IF microscopy on murine skin (Sitaru et al., J Immunol 2006, 177: 3461-8). In addition, each batch of anti-mLAMα3 IgG was characterized in vivo regarding its capability to induce experimental MMP in C57Bl/6 (B6) mice (WP1.1). From this experiment, the amount of antibodies that leads to moderate experimental MMP was determined; i.e. the amount needed to induce disease development with moderate involvement of the conjunctiva (i.e. score of 1-3 in a maximum of 50% of the animals on day 12) in the model of antibody transfer-induced MMP. For this purpose, the intensity of the separation of the conjunctiva is determined histologically. The body surface area affected should be between 3-8% at the concentration used. The conjunctiva score was set histologically post-mortem and was in a range of 0-4, depending on the intensity of the separation of the conjunctiva. The amount needed was determined to be 5 mg/injection of anti-mLAMα3 IgG.
To test DF2156A at 0.5% and reparixin at 0.5% effects on the severity of conjunctival involvement in experimental MMP, the disease was induced by repetitive subcutaneous (s.c.) injections of anti-mLAMα3 IgG (5 mg/mouse) on alternating days (0, 2, ( . . . ) and 10) into adult B6 mice, which were treated throughout the entire experiment twice a day via eyedrops. Three eyedrops per eye were given twice daily. Mice treated with solvent via eyedrops or methylprednisolone (MP) via i.p. injections were used as treatment controls. Mice s.c. injected with IgG isolated from normal rabbit serum (NR IgG) served as negative control.
The primary endpoint of this experiment was the extent of conjunctival lesions as determined by lesional histopathology (H&E stain) on day 12 and 28 following an established scoring system (Heppe, E. N., et al., J Invest Dermatol, 2017, 137, 1709-1718). In detail, biopsies from the palpebral conjunctiva were taken on day 12 and day 28 and paraffine embedded. 4.5 μm thick sections from 3 different depths of the biopsies were cut in triplicate and H&E stained for further quantification. Among the H&E stained histologies those with a palpebral conjunctival-epithelium with more than 1000 μm were used for quantification. For this score the length of the split formation (split=epithelia separation from the underlying dermal structures) is measured. The split length is categorized to a score of 0-4 with no split=0, less than 100 μm=1, less than 200 μm=2, less than 300 μm=3, more or equal 300 μm=4. Splits that occurred at the end of the tissue were excluded, because they were most likely to be of artificial nature due to the cutting. The longest split out of 9 possible sections is decisive for the final score. […]

[2] = test system: experimental MMP mouse model (anti-mLAMα3 IgG induced); assay: Macroscopic affected eye area in experimental MMP; details: DF2156A topical eyedrops, MP i.p. once daily
Text: as §1
For production of anti-mLAMα3 IgG, New Zealand White rabbits were immunized subcutaneously with […] of an equimolar mixture of the 2 purified recombinant proteins (aa1656-1985 and aa2756-3330 of murine Laminin alpha3 chain, produced in E. coli as disclosed by Heppe, E. N., et al., J Invest Dermatol, 2017, 137, 1709-1718) suspended in complete Freund's adjuvant. […] Reactivity of IgG fractions was analyzed by IF microscopy on murine skin (Sitaru et al., J Immunol 2006, 177: 3461-8). […] From this experiment, the amount of antibodies that leads to moderate experimental MMP was determined; i.e. the amount needed to induce disease development with moderate involvement of the conjunctiva (i.e. score of 1-3 in a maximum of 50% of the animals on day 12) in the model of antibody transfer-induced MMP. For this purpose, the intensity of the separation of the conjunctiva is determined histologically. […] The amount needed was determined to be 5 mg/injection of anti-mLAMα3 IgG. […]

[3] = test system: experimental MMP mouse model (anti-mLAMα3 IgG induced); assay: Severity of oral lesions by endoscopy (oral score) in experimental MMP; details: day 28; vs vehicle; DF2156A eyedrops, MP i.p.; maximum score 4
[4] = day 12, 0.5% eyedrops twice daily
[5] = day 28, 0.5% eyedrops twice daily
[6] = day 28, 0.5% eyedrops twice daily, listed as Reparixin

Row | SMILES | overall therapeutic effect in diseased mice [1] | subepithelial inflammatory infiltrate, semi-quantification of H&E stained palpebral conjunctival biopsies [1, 4] | palpebral conjunctival split formation (conjunctiva score) ([1]; day 12, DF2156A 0.5% or reparixin 0.5% eyedrops twice daily) | subepithelial inflammatory infiltrate, semi-quantification of H&E stained palpebral conjunctival biopsies [1, 5] | palpebral conjunctival split formation (conjunctiva score) [1, 5] | extent of macroscopic affected eye area ([2]; day 12) | extent of affected eye area (AUC over 28 days) ([2]; day 28) | severity of oral lesions (oral score) [3] | subepithelial inflammatory infiltrate, semi-quantification of H&E stained palpebral conjunctival biopsies [1, 6] | palpebral conjunctival split formation (conjunctiva score) [1, 6]
1 | C[C@@H](C(=O)NS(C)(=O)=O)c1ccc(OS(=O)(=O)C(F)(F)F)cc1 [DF2156A, R(−)-2-[(4-trifluoromethanesulfonyloxy)phenyl]-N-methanesulfonyl propionamide] | overall benefit | reduced | significant reduction; also recorded: improvement | decreased; also recorded: improvement | significant reduction; also recorded: improvement | reduction | reduction | decreased | – | –
2 | CC(C)Cc1ccc([C@@H](C)C(=O)NS(C)(=O)=O)cc1 [reparixin, R-(−)-2-(4-isobutylphenyl)propionyl methansulfonamide] | overall benefit; also recorded: slower onset of the therapeutic effect | reduced | – | significantly decreased | significant reduction | – | – | – | reduced | reduced
